Assay results from US8334299B2, “β-carboline for the treatment of neurodegenerative diseases” (Ellneuroxx, Ltd., priority 2007, dated 2012).

Columns and labels:
dopaminergic neurons [1] = assay: Primary midbrain culture, tyrosin hydroxylase staining and counting of dopaminergic neurons; assay type: cell-based, mice
Method: (§1) The experiments were carried out with the human neuroblastoma cell line (SH-SY5Y-cells) and with a cell culture of primary nerve cells from the mice embryo midbrain. […] Moreover, the mentioned compounds induce in the primary culture from the mice embryo midbrain the generation of new, differentiated and functional dopaminergic neurons.
To this aim midbrain cultures were prepared and kept for 10-12 days (DIV=Days in vitro) in an appropriate medium to accustom to in vitro conditions. Then 9-methyl-β-carboline was added in increasing concentrations and it was waited for 48 hours. Dopaminergic neurons were identified by staining with tyrosin hydroxylase. This enzyme occurs only in dopaminergic midbrain neurons. The number of dopaminergic neurons can be counted reliably with this method. In addition, hints can be obtained whether the dopaminergic neurons are mature or if they are precursor cells. The mature cells have characteristic extensions which also contain tyrosin hydroxylase.

dopaminergic neurons [2] = assay: Dopamine concentration in midbrain culture; assay type: cell-based, mice; conditions: 50 μM, 48 hours, 10 DIV-12 DIV
Method: FIG. 2a Dopamine concentration (dopamine content) after incubation with 50 μM 9-methyl-β-carboline for 48 hours from 10 DIV-12 DIV.
(§2) To obtain further hints that the number of dopaminergic neurons really has increased, the dopamine concentration was measured. […] Another characteristic and specificity of dopaminergic neurons is the transport of dopamine into the neurons. Dopamine cannot permeate the outer membrane of neurons because of its hydrophilic character. It must be actively and energy-dependently transported through the DAT mechanism.

dopaminergic neurons [3] = assay: 3H-dopamine uptake (dopamine transport capacity) in midbrain culture; assay type: cell-based, mice; conditions: 50 μM, 48 hours, 10 DIV-12 DIV
Method: FIG. 2b Dopamine transport capacity of dopaminergic neurons after 48 hours. ^3H-dopamine uptake after incubation with 50 μM 9-Me-BC for 48 hours from 10 DIV-12 DIV.
as §2

neurons (total) = assay: Total number of neurons in midbrain culture (different dyes); assay type: cell-based, mice; conditions: 50 μM, 48 hours; not as much as dopaminergic neurons
Method: FIG. 3 Percentage of neurons (total) after incubation with 50 μM 9-methyl-β-carboline for 48 hours from 10 DIV-12 DIV.
9-methyl-β-carboline was used to show whether only dopaminergic neurons were influenced, or other neurons or glial cells as well. This question can be answered by the use of different dyes.

[4] = tested on: midbrain cells in culture; assay: LDH release of midbrain cells in culture; assay type: cell-based, mice; conditions: 48 hours; dose-dependent up to 50 μM
Method: FIG. 4a LDH release after 48 hours of incubation with 50 μM 9-methyl-β-carboline for 48 hours 10 DIV-12 DIV.
Dying cells release the enzyme lactate dehydrogenase (LDH) into the medium. Since cells always die in culture always a small LDH concentration can be detected in the medium as an indirect measure for the vitality of the culture. Compared to control conditions the LDH concentration decreased after incubation with 9-methyl-β-carboline in a dose-dependent manner with a concentration up to 50 μM (FIG. 4a). The number of dead cells can be quantified by staining the cell nuclei with propidium iodide.

[5] = tested on: midbrain cells in culture; assay: ATP content of midbrain culture; assay type: cell-based, mice; conditions: 50 μM, 48 hours
Method: FIG. 4c ATP concentration (ATP content) after incubation with 50 μM 9-methyl-β-carboline (9-Me-BV) for 48 hours 10 DIV-12 DIV.
(§3) In 48 hours about 20% of the cells in culture died. In cultures with a 9-Alkyl-β-carboline only about 10% of the cells died under the same conditions (FIG. 4b). Thus, the findings are in line with the LDH findings. ATP provides the cell with energy. […] The enzyme caspase-3 is an indicator for apoptosis. After 24 hours, the enzyme activity was reduced which hints at a reduction of apoptotic processes, after 48 hours, however, it was increased (FIG. 4d). The last finding hints at a switch of culture cells from reduced necrosis to apoptosis, thus a more precise regulation of cell death.

caspase-3 = assay: Activity of the apoptosis enzyme caspase-3 in midbrain culture; assay type: cell-based, mice; conditions: 50 μM
Method: FIG. 4d Activity of the apoptosis enzyme caspase-3 during and after incubation with 50 μM 9-methyl-β-carboline for 48 hours 10 DIV-12 DIV.
as §3

[6] = tested on: human neuroblastoma cell line (SH-SY5Y-cells); assay: Differentiation and proliferation (bromodeoxyuridine incorporation) of human neuroblastoma cells; assay type: cell-based
Method: FIG. 5 Percentage of BrdU-positive cells of human neuroblastoma cells after incubation with 50 μM 9-methyl-β-carboline for 48 hours 10 DIV-12 DIV.
FIG. 6 Evidence of the reduction of cell proliferation by incorporation of bromodeoxyuridine into the cell nucleus chromatin.
as §1
The question whether 9-Alkyl-β-carboline derivatives lead to the differentiation of neurons is of outstanding importance.
This cell line has many characteristics which dopaminergic neurons have as well. […] So this confirms the observations in the primary midbrain cultures that 9-methyl-β-carboline promotes the differentiation and thus the maturation of neuronal cells (FIG. 1a and FIG. 1b).
Cell proliferation can be measured by the incorporation of bromodeoxyuridine. […] This hints at a reduction of cell proliferation. This finding also supports the other findings that 9-alkyl-β-carboline derivatives promote cell differentiation.

[7] = tested on: genes involved in neuronal differentiation, inflammation, apoptosis; assay: Microarray analysis of gene transcription in midbrain cultures; assay type: cell-based, mice; conditions: vs control cultures
From the text: These findings were further sustained by so-called microarray methods. The analyses confirm that the transcription of genes involved in neuronal differentiation is increased.

[8] = tested on: dopamine concentration in the striatum; assay: Chronic MPP+ infusion model of Parkinson's disease, dopamine concentration in the striatum; assay type: in vivo, rat; conditions: rat
From the text: In the diagram the dopamine (DA) levels of the left and right striatum of the single rats are indicated.
To investigate Parkinson's disease acute in vivo models are used for years although chronic models would be a better model for the disease. Another disadvantage of the acute models is that ca. 40% of the animals die from the application of the neurotoxin. Therefore, we have chosen a chronic model in which comparably very low doses of neurotoxin 1-methyl-4-phenylpyridinium (MPP^+) were infused for 28 days into the left lateral ventricle of the rat brain. The substance was continuously applied through osmotic minipumps. Thereby, casualties were completely avoided. After four weeks, either solvent or equimolar amounts of the sample substance, namely neuroprotective betacarboline, resp. 9-alkyl-betacarboline was infused for two weeks via the same catheter. In a preliminary study for dose-finding the MPP^+ dose which leads to a reduction by 40% of the dopamine concentration in the striatum was determined. The dopamine concentration in the striatum is a characteristic marker for Parkinson's disease in which a degeneration of dopaminergic neurons occurs.
The compounds A to L were tested as described in example 8. The test results of the compounds A to L are indicated in the following table in comparison to 9-methyl-β-carboline.

Cn1c2ccccc2c2ccncc21 [9-methyl-β-carboline]
increase in dopaminergic neurons after inactivation of the dopamine transporter DAT (dopaminergic neurons [1]; 50 μM 9-Me-BC with DAT inhibitor GBR12909, 48 hours): does not occur | cellular extensions and branching of dopaminergic neurons (dopaminergic neurons [1]; 50 μM, 48 hours, vs control without compound): significantly more cellular extensions | number of dopaminergic neurons (dopaminergic neurons [1]; 10-200 μM, 48 hours, 10 DIV-12 DIV, increase up to ca. 100 μM): increased dose-dependently | dopamine concentration (dopamine content) (dopaminergic neurons [2]): slightly increased without reaching significance level | neuronal transport capacity of dopamine (3H-dopamine uptake) (dopaminergic neurons [3]): increases | total number of neurons (neurons (total)): increases | LDH concentration in the medium compared to control [4]: decreased | concentration of ATP [5]: increased | caspase-3 enzyme activity (caspase-3; after 24 hours): reduced | caspase-3 enzyme activity (caspase-3; after 48 hours): increased | installation of bromodeoxyuridine into the chromatin in the cell nucleus ([6]; 50 μM, 48 hours, BrdU-positive cells): decreases | cellular extensions of neuroblastoma cells ([6]; human neuroblastoma cells): growth of cellular extensions | proliferation of neuroblastoma cells vs control cells ([6]; human neuroblastoma cells): proliferate less than control cells | transcription of genes involved in apoptosis [7]: transcribed less | transcription of genes involved in neuronal differentiation [7]: increased | transcription of genes which activate inflammation processes [7]: transcribed less | dopamine concentration in the left striatum ([8]; 4 weeks MPP+ then 2 weeks compound (equimolar, 0.105 mg/kg/day) into left ventricle): normalized | effect in an established model of Parkinson's disease ([8]; chronic MPP+ model): neuroprotective effect
